Columns and labels:
ATF4 mRNA = ATF4 mRNA by qRT-PCR; assay type: cell-based, human; details: 10 μM, indicated times
Excerpt: Results are the means of 4 replicate wells and are representative of 3 independent studies. *P<0.05 by Student's t-test compared with DMSO-treated cells. Prolonged or severe ER stress activates CHOP expression primarily through the PERK branch of the unfolded protein response, although the IRE1α and ATF6 branches also contribute.^5, 18 The 5-nitrofuran-2-amide derivatives could induce CHOP expression by acting as an ER stressor that activates all three branches of unfolded protein response or by preferentially activating a select branch of unfolded protein response. To distinguish between these possibilities, the inventor investigated which branches of the unfolded protein response were affected by compound 3d. […] Total RNA was extracted using TRIzol reagent (Invitrogen, Carlsbad, Calif.) according to the manufacturer's protocol, and 2 μg of total RNA was reverse transcribed using a Superscript kit (Invitrogen). Real-time PCR was performed in 96-well format using SYBR Select Master Mix (Applied Biosystems, Foster City, Calif.) with an ABI 7500 PCR system (Applied Biosystems). The primer sequences used were: Human CHOP: SEQ ID NO: 1 [NT] and SEQ ID NO: 2 [NT]. Human ATF4: SEQ ID NO: 3 [NT] and SEQ ID NO: 4 [NT]. Human XBP1: SEQ ID NO: 5 [NT] and SEQ ID NO: 6 [NT]. Human Cyclophilin A: SEQ ID NO: 7 [NT] and SEQ ID NO: 8 [NT]. Human GAPDH: SEQ ID NO: 9 [NT] and SEQ ID NO: 10 [NT].

p-eIF2α = experiment: eIF2α phosphorylation by Western blotting; assay type: cell-based, human; details: 10 μM, indicated times
Protocol: FIG. 3D is an image showing ATF4 and p-EIF2α protein levels after treatment with a 5-nitrofuran-2-amide derivative compound 3d. Cells were treated with compound 3d (10 μM) for the indicated times, and ATF4 and p-eIF2a protein levels were analyzed by Western blotting. α-Tubulin was used as a loading control. The data shown are representative of 3 independent studies.
Prolonged or severe ER stress activates CHOP expression primarily through the PERK branch of the unfolded protein response, although the IRE1α and ATF6 branches also contribute.^5, 18 The 5-nitrofuran-2-amide derivatives could induce CHOP expression by acting as an ER stressor that activates all three branches of unfolded protein response or by preferentially activating a select branch of unfolded protein response. To distinguish between these possibilities, the inventor investigated which branches of the unfolded protein response were affected by compound 3d. Activation of the PERK pathway by ER stress leads to phosphorylation of eIF2α, followed by activation of the transcription and translation of the transcription factor ATF4, a 5′-upstream ORF-containing gene, and ATF4-mediated CHOP expression.^5, 22 To determine whether the PERK pathway is involved in compound 3d-mediated CHOP induction, ATF4 expression and eIF2a phosphorylation in HCC-1806 cells by qRT-PCR and Western blotting were analyzed. […]

Compound: CC1CCN(c2ccc(NC(=O)c3ccc([N+](=O)[O-])o3)cc2)CC1 [Compound 3d]
- ATF4 expression, mRNA (ATF4 mRNA): significantly increased ATF4 expression
- phosphorylation of eIF2α (p-eIF2α): substantially increased the phosphorylation of eIF2a
